Measurements published in ChEMBL document CHEMBL4265884, “Discovery and biological activity of computer-assisted drug designed Akt pathway inhibitors” (Bioorg Med Chem Lett, 2018).
Active and inactive are the calls of the source. No cut-off for these calls is given here.

Legend:
[1] = target: RAC-alpha serine/threonine-protein kinase (Homo sapiens) (UniProt P31749); experiment: Inhibition of AKT phosphorylation at Ser473 in […] WBras1 cells at 2.5 uM after 24 hrs by Western blot analysis; assay type: cell-based
[2] = target: RAC-alpha serine/threonine-protein kinase (Homo sapiens) (UniProt P31749); experiment: Inhibition of AKT phosphorylation at Ser473 in human NCI-H2009 cells at 2.5 uM after 24 to 48 hrs by Western blot analysis; assay type: cell-based
[3] = target: RAC-alpha serine/threonine-protein kinase (Homo sapiens) (UniProt P31749); experiment: Inhibition of AKT phosphorylation at Ser473 in […] WBras1 cells at 2.5 uM after 4 hrs by Western blot analysis; assay type: cell-based
[4] = test system: NCI-H2009; experiment: Growth inhibition of human NCI-H2009 cells assessed as reduction in cell number at 2.5 uM after 2 to 4 days by flow cytometric analysis; assay type: functional, cell-based
[5] = target: RAC-alpha serine/threonine-protein kinase (Homo sapiens) (UniProt P31749); experiment: Inhibition of AKT phosphorylation at Ser473 in human NCI-H2009 cells up to 10 uM after 4 hrs by Western blot analysis; assay type: cell-based
[6] = target: RAC-alpha serine/threonine-protein kinase (Homo sapiens) (UniProt P31749); experiment: Inhibition of AKT phosphorylation at Ser473 in human NCI-H2009 cells at 2.5 uM after 1 to 4 hrs by Western blot analysis; assay type: cell-based
[7] = target: RAC-alpha serine/threonine-protein kinase (Homo sapiens) (UniProt P31749); experiment: Inhibition of AKT phosphorylation at Ser473 in […] WBras1 cells at 1.25 uM after 24 hrs by Western blot analysis; assay type: cell-based
[8] = target: RAC-alpha serine/threonine-protein kinase (Homo sapiens) (UniProt P31749); experiment: Inhibition of AKT phosphorylation at Ser473 in […] WBras1 cells at 1.25 uM after 4 hrs by Western blot analysis; assay type: cell-based
[9] = target: RAC-alpha serine/threonine-protein kinase (Homo sapiens) (UniProt P31749); experiment: Inhibition of AKT phosphorylation at Ser473 in human NCI-H2009 cells at 1.25 uM after 24 to 48 hrs by Western blot analysis; assay type: cell-based
[10] = test system: NCI-H2009; experiment: Growth inhibition of human NCI-H2009 cells assessed as reduction in cell number at 1.25 uM after 2 to 4 days by flow cytometric analysis; assay type: functional, cell-based
[11] = test system: NCI-H2009; experiment: Growth inhibition of human NCI-H2009 cells assessed as reduction in cell number after 2 days by flow cytometric analysis; assay type: functional, cell-based
[12] = target: RAC-alpha serine/threonine-protein kinase (Homo sapiens) (UniProt P31749); experiment: Inhibition of AKT phosphorylation at Ser473 in […] WBras1 cells at 25 uM after 24 hrs by Western blot analysis; assay type: cell-based
[13] = target: RAC-alpha serine/threonine-protein kinase (Homo sapiens) (UniProt P31749); experiment: Inhibition of AKT phosphorylation at Ser473 in […] WBras1 cells at 25 uM after 4 hrs by Western blot analysis; assay type: cell-based
[14] = target: RAC-alpha serine/threonine-protein kinase (Homo sapiens) (UniProt P31749); experiment: Inhibition of AKT phosphorylation at Ser473 in human NCI-H2009 cells at 25 uM after 24 hrs by Western blot analysis; assay type: cell-based

Sequence of RAC-alpha serine/threonine-protein kinase (Homo sapiens) (P31749 whole entry): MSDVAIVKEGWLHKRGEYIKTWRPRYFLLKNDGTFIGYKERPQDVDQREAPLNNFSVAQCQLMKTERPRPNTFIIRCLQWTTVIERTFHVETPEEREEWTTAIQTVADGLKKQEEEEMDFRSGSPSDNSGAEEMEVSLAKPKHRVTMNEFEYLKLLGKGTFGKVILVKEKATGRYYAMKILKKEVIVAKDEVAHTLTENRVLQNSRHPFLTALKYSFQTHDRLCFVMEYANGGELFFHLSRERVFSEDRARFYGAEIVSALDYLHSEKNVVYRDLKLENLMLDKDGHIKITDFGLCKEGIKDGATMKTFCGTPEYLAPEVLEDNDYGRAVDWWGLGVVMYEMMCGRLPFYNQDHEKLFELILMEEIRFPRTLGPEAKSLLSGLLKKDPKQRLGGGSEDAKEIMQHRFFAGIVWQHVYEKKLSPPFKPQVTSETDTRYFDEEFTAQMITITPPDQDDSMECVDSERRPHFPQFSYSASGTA

| SMILES | inhibition [1] | inhibition [2] | inhibition [3] | growth inhibition (GI) [4] | inhibition [5] | inhibition [6] | inhibition [7] | inhibition [8] | inhibition [9] | growth inhibition (GI) [10] | growth inhibition (GI) [11] | IC50 ([11]; NCI-H2009, 48 h) | inhibition [12] | inhibition [13] | inhibition [14] |
| --- | --- | --- | --- | --- | --- | --- | --- | --- | --- | --- | --- | --- | --- | --- | --- |
| CCCCCCCCCCCCSC(=NC)NC | Active | inactive | Active | Active | inactive | – | – | – | – | – | – | – | – | – | – |
| CCCCCCCCCCCCSC1=NCCCN1 | – | – | – | – | – | Active | Active | Active | Active | Active | Dose-dependent effect | 200 nM | – | – | – |
| C=CCCCCCCCCC1OCCN1CC (stereo unspecified) | – | – | – | inactive | – | – | – | – | – | – | – | – | Active | Active | inactive |
